Measured values from patent US20110319274A1, “Identification of Compounds Modifying a Cellular Response” (Carlsberg A/S, priority 2004, published 2011).

Tested on: GFP expressing U2OS cells and Hek293 cells
Assay: Adhesion peptide screening for low fluorescence/high adherence properties (FABS, microscope)
Type: cell-based, Human
Conditions: re-synthesized peptides on beads
Method: An adhesion D-amino peptide library was synthesized (500,000 members) as described above in Example 1 and screened for low fluorescence/high adherence properties. This was done in 4 steps:
1) Selection of low fluorescent beads by Fluorescence Activated Bead Sorting (FABS).
The 500,000 member adhesion peptide library was FABSorted and 150,000 low fluorescent beads were isolated.
2) Selection of beads with good cell adhesion properties.
The 150,000 low fluorescent beads were incubated with GFP expressing U2OS cells followed by FABS sorting for high fluorescence (high cell adhesion). 536 beads were isolated.
3) Identification and isolation of beads with high Hek293 cell adherence properties.
The 536 beads were cleared for U2OS cells and incubated with GFP expressing Hek293 cells. 47 beads with high cell adhesion properties were isolated using a fluorescence microscope.
4) Sequence elucidation and re-synthesis of selected peptides.
22 peptides were sequenced and six of them were re-synthesized. Based on Structure-Activity of the six peptides, four additional ones (AP-7 […] AP-10) were synthesized.

With “arg-gln-arg-ile-arg (RQRIR; Cell adhesion peptide) [SEQ IS 35]” the “overall performance (low fluorescence/high adherence properties)” value was “best overall performance”.
